Data published in patent US20230093099A1, “COMPOUNDS AND METHODS OF TREATING CANCERS” (CULLGEN (SHANGHAI), INC., priority 2019, published 2023).

system: RS4;11 cells; assay: Cell viability assay (CellTiter-Glo) in RS4;11 cells; type: cell-based; settings: Homo sapiens, 72 h; RS4;11 ALL cells treated for three days; read-out: cell viability inhibition IC50
Outline: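 RS4;11 cells seeded at 5000 per well, exposed for 3 days to 8- or 12-point 3-fold serial dilutions. Viability read by CellTiter-Glo luminescence; IC50 fitted by nonlinear least-squares regression.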

IC50 [µM] | SMILES
< 0.1 | O=C(CN1CCC(n2cc(-c3cnc4cccc(-c5cc(F)c(CN6CCOCC6)c(F)c5)c4n3)cn2)CC1)NCCCCCCCCNc1ccc2c(c1)C(=O)N(C1CCC(=O)NC1=O)C2=O (centres unmarked) [JA-180, 2-(4-(4-(8-(3,5-difluoro-4-(morpholinomethyl)phenyl)quinoxalin-2-yl)-1H-pyrazol-1-yl)piperidin-1-yl)-N-(8-((2-(2,6-dioxopiperidin-3-yl)-1,3-dioxoisoindolin-5-yl)amino)octyl)acetamide]
< 0.1 | CS(=O)(=O)c1ccc(-c2cccc3nc(Nc4ccc(N5CCN(C(=O)CCNc6ccc7c(c6)C(=O)N(C6CCC(=O)NC6=O)C7=O)CC5)cc4)nn23)cc1 (centres unmarked) [JA-202]

same assay, conditions: Homo sapiens, 72 h; RS4;11 cells; cell viability, 3 days, CellTiter-Glo; read-out: IC50

IC50 [µM] | SMILES
> 10 | Cc1ncsc1-c1ccc(CNC(=O)[C@@H]2C[C@@H](O)CN2C(=O)[C@@H](NC(=O)COCCOCCOCC(=O)N2CCN(c3ccc(Nc4nc5cccc(-c6ccc(S(C)(=O)=O)cc6)n5n4)cc3)CC2)C(C)(C)C)cc1 [JA-064, (2S,4R)-1-((S)-2-(tert-Butyl)-14-(4-(4-((5-(4-(methylsulfonyl)phenyl)-[1,2,4]triazolo[1,5-a]pyridin-2-yl)amino)phenyl)piperazin-1-yl)-4,14-dioxo-6,9,12-trioxa-3-azatetradecanoyl)-4-hydroxy-N-(4-(4-methylthiazol-5-yl)benzyl)pyrrolidine-2-carboxamide]
> 10 | Cc1cnc(Nc2ccc(N3CCN(CC(=O)NCCOCCC(=O)N[C@H](C(=O)N4C[C@H](O)C[C@H]4C(=O)NCc4ccc(-c5scnc5C)cc4)C(C)(C)C)CC3)cc2)nc1Nc1cccc(S(=O)(=O)NC(C)(C)C)c1 [JA-218, (2S,4R)-1-((S)-2-(3-(2-(2-(4-(4-((4-((3-(N-(tert-butyl)sulfamoyl)phenyl)amino)-5-methylpyrimidin-2-yl)amino)phenyl)piperazin-1-yl)acetamido)ethoxy)propanamido)-3,3-dimethylbutanoyl)-4-hydroxy-N-(4-(4-methylthiazol-5-yl)benzyl)pyrrolidine-2-carboxamide]
> 10 | Cc1cnc(Nc2ccc(N3CCN(C(=O)CCCCCCNc4cccc5c4C(=O)N(C4CCC(=O)NC4=O)C5=O)CC3)cc2)nc1Nc1cccc(S(=O)(=O)NC(C)(C)C)c1 (centres unmarked) [JA-015, N-(tert-Butyl)-3-((2-((4-(4-(7-((2-(2,6-dioxopiperidin-3-yl)-1,3-dioxoisoindolin-4-yl)amino)heptanoyl)piperazin-1-yl)phenyl)amino)-5-methylpyrimidin-4-yl)amino)benzenesulfonamide]
> 10 | Cc1ncsc1-c1ccc(CNC(=O)[C@@H]2C[C@@H](O)CN2C(=O)[C@@H](NC(=O)COCC(=O)N2CCC(n3cc(-c4cnc5cccc(-c6cc(F)c(CN7CCOCC7)c(F)c6)c5n4)cn3)CC2)C(C)(C)C)cc1 [JA-057, (2S,4R)-1-[(2S)-2-[[2-[2-[4-[4-[8-[3,5-Difluoro-4-(morpholinomethyl)phenyl]quinoxalin-2-yl]pyrazol-1-yl]-1-piperidyl]-2-oxo-ethoxy]acetyl]amino]-3,3-dimethyl-butanoyl]-4-hydroxy-N-[[4-(4-methylthiazol-5-yl)phenyl]methyl]pyrrolidine-2-carboxamide]
> 10 | O=C(CN1CCC(n2cc(-c3cnc4cccc(-c5cc(F)c(CN6CCOCC6)c(F)c5)c4n3)cn2)CC1)NCCOCCOCCOCCOCCOCCNc1cccc2c1C(=O)N(C1CCC(=O)NC1=O)C2=O (centres unmarked) [JA-143, 2-[4-[4-[8-[3,5-Difluoro-4-(morpholinomethyl)phenyl]quinoxalin-2-yl]pyrazol-1-yl]-1-piperidyl]-N-[2-[2-[2-[2-[2-[2-[[2-(2,6-dioxo-3-piperidyl)-1,3-dioxo-isoindolin-4-yl]amino]ethoxy]ethoxy]ethoxy]ethoxy]ethoxy]ethyl]acetamide]
> 10 | Cc1ncsc1-c1ccc(CNC(=O)[C@@H]2C[C@@H](O)CN2C(=O)[C@@H](NC(=O)CCCCNC(=O)CN2CCN(c3ccc(Nc4nc5cccc(-c6ccc(S(C)(=O)=O)cc6)n5n4)cc3)CC2)C(C)(C)C)cc1 [JA-130, (2S,4R)-1-((S)-3,3-Dimethyl-2-(5-(2-(4-(4-((5-(4-(methylsulfonyl)phenyl)-[1,2,4]triazolo[1,5-a]pyridin-2-yl)amino)phenyl)piperazin-1-yl)acetamido)pentanamido)butanoyl)-4-hydroxy-N-(4-(4-methylthiazol-5-yl)benzyl)pyrrolidine-2-carboxamide]
> 10 | Cc1ncsc1-c1ccc(CNC(=O)[C@@H]2C[C@@H](O)CN2C(=O)[C@@H](NC(=O)COCCOCCOCCOCCOCC(=O)N2CCC(n3cc(-c4cnc5cccc(-c6cc(F)c(CN7CCOCC7)c(F)c6)c5n4)cn3)CC2)C(C)(C)C)cc1 [JA-055, (2S,4R)-1-[(2S)-2-[[2-[2-[2-[2-[2-[2-[4-[4-[8-[3,5-Difluoro-4-(morpholinomethyl)phenyl]quinoxalin-2-yl]pyrazol-1-yl]-1-piperidyl]-2-oxo-ethoxy]ethoxy]ethoxy]ethoxy]ethoxy]acetyl]amino]-3,3-dimethyl-butanoyl]-4-hydroxy-N-[[4-(4-methylthiazol-5-yl)phenyl]methyl]pyrrolidine-2-carboxamide]
0.0886 | O=C(CN1CCC(n2cc(-c3cnc4cccc(-c5cc(F)c(CN6CCOCC6)c(F)c5)c4n3)cn2)CC1)NCCCCCCCCNc1ccc2c(c1)C(=O)N(C1CCC(=O)NC1=O)C2=O (centres unmarked) [JA-180, 2-(4-(4-(8-(3,5-difluoro-4-(morpholinomethyl)phenyl)quinoxalin-2-yl)-1H-pyrazol-1-yl)piperidin-1-yl)-N-(8-((2-(2,6-dioxopiperidin-3-yl)-1,3-dioxoisoindolin-5-yl)amino)octyl)acetamide]
0.159 | Cc1cnc(Nc2ccc(N3CCN(CC(=O)NCCCCCCCCNc4cccc5c4C(=O)N(C4CCC(=O)NC4=O)C5=O)CC3)cc2)nc1Nc1cccc(S(=O)(=O)NC(C)(C)C)c1 (centres unmarked) [JA-096, 2-(4-(4-((4-((3-(N-(tert-Butyl)sulfamoyl)phenyl)amino)-5-methylpyrimidin-2-yl)amino)phenyl)piperazin-1-yl)-N-(8-((2-(2,6-dioxopiperidin-3-yl)-1,3-dioxoisoindolin-4-yl)amino)octyl)acetamide]
0.0054 | CS(=O)(=O)c1ccc(-c2cccc3nc(Nc4ccc(N5CCN(C(=O)CCCCCCc6ccc7c(c6)C(=O)N(C6CCC(=O)NC6=O)C7)CC5)cc4)nn23)cc1 (centres unmarked) [JA-268, 3-(6-(7-(4-(4-((5-(4-(methylsulfonyl)phenyl)-[1,2,4]triazolo[1,5-a]pyridin-2-yl)amino)phenyl)piperazin-1-yl)-7-oxoheptyl)-1-oxoisoindolin-2-yl)piperidine-2,6-dione]
> 10 | O=C(CN1CCC(n2cc(-c3cnc4cccc(-c5cc(F)c(CN6CCOCC6)c(F)c5)c4n3)cn2)CC1)NCCOCCOCCOCCNc1ccc2c(c1)C(=O)N(C1CCC(=O)NC1=O)C2=O (centres unmarked) [JA-171, 2-(4-(4-(8-(3,5-Difluoro-4-(morpholinomethyl)phenyl)quinoxalin-2-yl)-1H-pyrazol-1-yl)piperidin-1-yl)-N-(2-(2-(2-(2-((2-(2,6-dioxopiperidin-3-yl)-1,3-dioxoisoindolin-5-yl)amino)ethoxy)ethoxy)ethoxy)ethyl)acetamide]
> 10 | Cc1cnc(Nc2ccc(N3CCN(C(=O)CCOCCOCCOCCOCCOCCC(=O)N[C@H](C(=O)N4C[C@H](O)C[C@H]4C(=O)NCc4ccc(-c5scnc5C)cc4)C(C)(C)C)CC3)cc2)nc1Nc1cccc(S(=O)(=O)NC(C)(C)C)c1 [JA-037, (2S,4R)-1-((S)-2-(tert-Butyl)-22-(4-(4-((4-((3-(N-(tert-butyl)sulfamoyl)phenyl)amino)-5-methylpyrimidin-2-yl)amino)phenyl)piperazin-1-yl)-4,22-dioxo-7,10,13,16,19-pentaoxa-3-azadocosanoyl)-4-hydroxy-N-(4-(4-methylthiazol-5-yl)benzyl)pyrrolidine-2-carboxamide]
1.67 | O=C1CCC(N2Cc3ccc(OCCCCCC(=O)N4CCC(n5cc(-c6cnc7cccc(-c8cc(F)c(CN9CCOCC9)c(F)c8)c7n6)cn5)CC4)cc3C2=O)C(=O)N1 (centres unmarked) [JA-274, 3-(6-((6-(4-(4-(8-(3,5-Difluoro-4-(morpholinomethyl)phenyl)quinoxalin-2-yl)-1H-pyrazol-1-yl)piperidin-1-yl)-6-oxohexyl)oxy)-1-oxoisoindolin-2-yl)piperidine-2,6-dione]
0.108 | CS(=O)(=O)c1ccc(-c2cccc3nc(Nc4ccc(N5CCN(C(=O)CCNc6ccc7c(c6)C(=O)N(C6CCC(=O)NC6=O)C7=O)CC5)cc4)nn23)cc1 (centres unmarked) [JA-202]
> 10 | Cc1ncsc1-c1ccc(CNC(=O)[C@@H]2C[C@@H](O)CN2C(=O)[C@@H](NC(=O)CCCNC(=O)CN2CCN(c3ccc(Nc4nc5cccc(-c6ccc(S(C)(=O)=O)cc6)n5n4)cc3)CC2)C(C)(C)C)cc1 [JA-125, (2S,4R)-1-((S)-3,3-Dimethyl-2-(4-(2-(4-(4-((5-(4-(methylsulfonyl)phenyl)-[1,2,4]triazolo[1,5-a]pyridin-2-yl)amino)phenyl)piperazin-1-yl)acetamido)butanamido)butanoyl)-4-hydroxy-N-(4-(4-methylthiazol-5-yl)benzyl)pyrrolidine-2-carboxamide]
> 10 | Cc1ncsc1-c1ccc(CNC(=O)[C@@H]2C[C@@H](O)CN2C(=O)[C@@H](NC(=O)CCCCCC(=O)N2CCN(c3ccc(Nc4nc5cccc(-c6ccc(S(C)(=O)=O)cc6)n5n4)cc3)CC2)C(C)(C)C)cc1 [JA-076, (2S,4R)-1-((S)-3,3-Dimethyl-2-(7-(4-(4-((5-(4-(methylsulfonyl)phenyl)-[1,2,4]triazolo[1,5-a]pyridin-2-yl)amino)phenyl)piperazin-1-yl)-7-oxoheptanamido)butanoyl)-4-hydroxy-N-(4-(4-methylthiazol-5-yl)benzyl)pyrrolidine-2-carboxamide]
> 10 | Cc1cnc(Nc2ccc(N3CCN(C(=O)CCCCCCNc4ccc5c(c4)C(=O)N(C4CCC(=O)NC4=O)C5=O)CC3)cc2)nc1Nc1cccc(S(=O)(=O)NC(C)(C)C)c1 (centres unmarked) [JA-230, N-(tert-butyl)-3-((2-((4-(4-(7-((2-(2,6-dioxopiperidin-3-yl)-1,3-dioxoisoindolin-5-yl)amino)heptanoyl)piperazin-1-yl)phenyl)amino)-5-methylpyrimidin-4-yl)amino)benzenesulfonamide]
> 10 | Cc1ncsc1-c1ccc(CNC(=O)[C@@H]2C[C@@H](O)CN2C(=O)[C@@H](NC(=O)CCOCCOCCC(=O)N2CCC(n3cc(-c4cnc5cccc(-c6cc(F)c(CN7CCOCC7)c(F)c6)c5n4)cn3)CC2)C(C)(C)C)cc1 [JA-056, (2S,4R)-1-[(2S)-2-[3-[2-[3-[4-[4-[8-[3,5-Difluoro-4-(morpholinomethyl)phenyl]quinoxalin-2-yl]pyrazol-1-yl]-1-piperidyl]-3-oxo-propoxy]ethoxy]propanoylamino]-3,3-dimethyl-butanoyl]-4-hydroxy-N-[[4-(4-methylthiazol-5-yl)phenyl]methyl]pyrrolidine-2-carboxamide]
